Laboratory results reported in paper PMC11249646, “Small-Molecule Disruptors of the Interaction between Calcium- and Integrin-Binding Protein 1 and Integrin αIIbβ3 as Novel Antiplatelet Agents” (ACS Pharmacology & Translational Science, 2024).
Where two headings read alike, the source gives them in different places.

Target: T1, CIB1 and αIIb interaction (CIB1-GST : F-αIIb peptide) (Homo sapiens, UniProt Q99828)
T1 construct: made in house; host or cells: BL-21 plus RIL cells (E. coli)
T1 sequence (Q99828 1-191): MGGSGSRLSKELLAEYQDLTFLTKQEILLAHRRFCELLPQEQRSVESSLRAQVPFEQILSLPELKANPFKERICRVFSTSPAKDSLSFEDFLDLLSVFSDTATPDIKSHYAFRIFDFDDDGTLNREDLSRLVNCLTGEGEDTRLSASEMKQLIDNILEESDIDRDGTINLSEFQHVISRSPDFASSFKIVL
Experiment: FP assay, 1536-well qHTS format (primary and confirmatory screen)
Assay type: binding
Conditions: for Efficacy (%): negative = inhibition; for Curve Class: negative sign = inhibitory curve; for IC50: read-out: IC50

[1] = qHTS primary screen hits, Table S2
[2] = qHTS primary screen hits, Table S2, several classes where COUNT > 1
[3] = qHTS primary screen of LOPAC/NPACT libraries

Row | SMILES | Efficacy (%) [1] [%] | Curve Class [2] | IC50 [1] [µM] | Curve Class [1] | Efficacy (%) [3] [%] | Curve Class [3] | IC50 [3] [µM]
1 | COc1ccccc1-c1cccc(-c2c(O)c3cc(C#N)c(Cl)cc3[nH]c2=O)c1 [NCGC00263230-01] | -24 | -2.4 | 62.2 | – | – | – | –
2 | CN1CCN(c2ccc(NC(=O)CN(C)Cc3c(O)ccc4ccccc34)cc2)CC1.O=C(O)C(F)(F)F [NCGC00229739-01] | -49 | -3 | 89.1 | – | – | – | –
3 | O=C(O)C(F)(F)F.OCc1cn(Cc2ccc(O)c3ncccc23)cn1 [NCGC00183377-01] | -33 | -2.2 | 44.7 | – | – | – | –
4 | Cc1ccc(O)c2ncccc12 [NCGC00164506-02] | -50 | – | 44.7 | -2.2 | – | – | –
5 | O=Cc1ccc(O)c(O)c1O [NCGC00262933-01] | -62 | -2.4 | 56.2 | – | – | – | –
6 | COc1cc(Nc2cc(C#N)nc3cc(OCCCN4CCN(C)CC4)c(OC)cc23)c(Cl)cc1Cl [NCGC00390366-01] | – | – | – | – | -33 | -2.4 | 56.2
7 | O=C(O)c1ccc(S(=O)(=O)N[C@@H](Cc2ccc(O)cc2)C(=O)O)cc1 [NCGC00161808-01] | -21 | -2.4 | 44.7 | – | – | – | –
8 | O=C(O)C(F)(F)F.c1nc(NCCc2c[nH]cn2)c2ccc(-c3ccc4c(c3)OCO4)cc2n1 [NCGC00185971-01] | -28 | -2.4 | 79.4 | – | – | – | –
9 | O=C1c2c(O)cc(O)cc2OC(c2ccc(O)c(O)c2)C1O (centres unmarked) [NCGC00261882-01] | – | – | – | – | -14 | -1.2 | 10
10 | Cc1nnc(SCC2=C(C(=O)O)N3C(=O)[C@@H](NC(=O)Cn4cnnn4)[C@H]3SC2)s1 [NCGC00022653-06] | – | – | – | – | -21 | – | –
11 | Cc1cc2occ(CN(C)CCN(C)Cc3cn(-c4cccc(C(F)(F)F)c4)c4ccccc34)c(=O)c2cc1C.Cl [NCGC00386701-02] | – | – | – | – | -31 | -2.4 | 79.4
12 | Cc1cc(OCCCS(C)(=O)=O)cc(C)c1-c1cccc(COc2ccc(-c3cc(=O)[nH][s+]3[O-])cc2)c1 (centres unmarked) [NCGC00485952-01] | – | – | – | – | -27 | -1.4 | 4
13 | CNC(=O)c1ccccc1Nc1cc(Nc2ccc(N3CCOCC3)cc2OC)ncc1C(F)(F)F [NCGC00378620-04] | – | – | – | – | -24 | -1.4 | 6.3
14 | Cc1cccc(S(=O)(=O)Nc2cnccc2C(=O)Nc2nc(-c3ccccc3)cs2)c1.O=C(O)C(F)(F)F [NCGC00344904-01] | -43 | -2.4 | 56.2 | – | – | – | –
15 | CC1CCCC[C@H]2C(=O)C=C[C@H](O)[C@@H]2CC(=O)O1 (some centres unmarked) [NCGC00169882-02] | -82 | – | 28.2 | -1.2 | – | – | –
16 | O=S1(=O)OC(c2ccc(O)cc2)(c2ccc(O)cc2)c2ccccc21 [NCGC00013109-03] | -72 | – | 44.7 | -2.4 | – | – | –
17 | C=CC(=O)Nc1cccc(Sc2nc(Nc3ccc(N4CCN(C)CC4)cc3)ncc2Cl)c1 [NCGC00346497-02] | – | – | – | – | -29 | -2.4 | 20
18 | CN(C)c1cccc(-c2cnc(N3CCC(c4ncc[nH]4)CC3)s2)c1.O=C(O)C(F)(F)F [NCGC00187899-01] | -34 | – | 79.4 | -2.4 | – | – | –
19 | Cl.Cl.O=C(O)c1cn(-c2ccc(F)cc2)c2cc(N3CCNCC3)c(F)cc2c1=O [NCGC00177995-02] | -41 | -3 | 39.8 | – | – | – | –
20 | O=C1Cc2c([nH]c3ccc(Br)cc23)-c2ccccc2N1 [NCGC00015582-06] | – | – | – | – | -19 | -1.4 | 20
21 | O=[N+]([O-])/C=C/c1ccc2c(c1)OCO2 [NCGC00186015-01] | – | – | – | – | -24 | -2.2 | 56.2
22 | Cc1ccnc(NC(=S)N2CCN(c3cccc(C(F)(F)F)c3)CC2)n1.O=C(O)C(F)(F)F [NCGC00242308-01] | -41 | -2.2 | 79.4 | – | – | – | –
23 | CNC[C@H](O)c1ccc(O)c(O)c1 [NCGC00015417-04] | -32 | – | 70.8 | -2.4 | – | – | –
24 | CCN(CC)C(=O)N[C@@H]1C=C2c3cccc4[nH]cc(c34)C[C@@H]2N(C)C1 [NCGC00179663-03] | -60 | -2.4 | 50.1 | – | – | – | –
25 | NS(=O)(=O)c1ccc(Cc2c(-c3ccc(F)c(-c4cccs4)c3)nn(-c3nc(C(=O)O)cs3)c2CC2CC2)cc1F.O=C(O)C(F)(F)F [NCGC00390071-01] | -33 | -2.2 | 50.1 | – | – | – | –

Row | SMILES | Efficacy (%) [1] [%] | Curve Class [2] | IC50 [1] [µM] | Curve Class [1] | Efficacy (%) [3] [%] | Curve Class [3] | IC50 [3] [µM]
26 | Nc1nc2c(s1)C(c1ccccc1Cl)CC(O)=N2 (centres unmarked) [NCGC00284018-04] | -37 | – | 53.2 | -2.4 | – | – | –
27 | Cc1ccc(N[S+](=O)([O-])c2cc3c(cc2N[C@@H](C)CO)NC(=O)CC3)cc1N[C@@H](C)CO [NCGC00189369-01] | -29 | -2.4 | 70.8 | – | – | – | –
28 | COC(=O)C1=C(C)NC(C)=C(C(=O)OCCN(C)Cc2ccccc2)C1c1cccc([N+](=O)[O-])c1.Cl (centres unmarked) [NCGC00261494-01] | – | – | – | – | -16 | -1.2 | 3.5
29 | Cn1cc(-c2cnc3ccc4ccc(CS(=O)(=O)NCc5ccccn5)cc4c(=O)c3c2)cn1 [NCGC00378567-02] | – | – | – | – | -17 | -1.4 | 10
30 | O=C(O)/C(=C/c1c(C(=O)O)[nH]c2cc(Cl)cc(Cl)c12)c1ccccc1 [NCGC00015639-04] | – | – | – | – | -29 | -2.2 | 56.2
31 | O=C(Nc1nc(-c2ccccc2)cs1)c1ccncc1NS(=O)(=O)c1ccccc1Cl.O=C(O)C(F)(F)F [NCGC00344943-02] | -50 | – | 64.8 | – | – | – | –
32 | CCCC1(CCC)CCC2(CCN(CCCN(CC)CC)C2)CC1.Cl [NCGC00379163-01] | – | – | – | – | -32 | -2.4 | 79.4
33 | Cc1nc(CNc2ncnc3ccc(-c4ccc(CO)o4)cc23)cs1.O=C(O)C(F)(F)F [NCGC00188652-01] | -35 | -2.4 | 56.2 | – | – | – | –
34 | Cc1ccc(S(=O)(=O)Nc2cc(S(=O)(=O)c3ccc(C)cc3)c(O)c3cccnc23)cc1 [NCGC00161699-01] | -29 | -2.4 | 50.1 | – | – | – | –
35 | Nc1cc(-c2ccncc2)c[nH]c1=O [NCGC00016896-06] | -48 | -2.2 | 50.1 | – | – | – | –
36 | CN1Cc2c(N)cccc2C(c2ccccc2)C1.O=C(O)/C=C\C(=O)O (centres unmarked) [NCGC00015727-06] | -62 | – | 50.1 | -2.2 | – | – | –
37 | CCCCCCCc1ccc(CCc2cccc(O)c2C(=O)O)cc1 [NCGC00263121-01] | -33 | -3 | 24.1 | – | – | – | –
38 | O=C([O-])CCNc1cc(N2CCc3ccccc3CC2)nc(-c2ccccn2)n1.[Na+] [NCGC00390406-01] | -28 | – | 26.3 | -2.4 | – | – | –
39 | CS(=O)(=O)c1ccc(C(=O)C2C(=O)CCCC2=O)c([N+](=O)[O-])c1 [NCGC00163843-03] | -30 | -2.4 | 126 | – | – | – | –
40 | Cc1cc(Cl)ccc1-n1c(CCC(=O)O)ccc1-c1cccs1 [NCGC00100435-03] | -33 | – | 50.1 | -2.2 | – | – | –
41 | Cc1c(O)cc2c(c1O)COC1(O)CCCOC21 (centres unmarked) [NCGC00380856-01] | – | – | – | – | -23 | -2.4 | 50.1
42 | O=C(Nc1cccc(C(=O)Nc2ccc(S(=O)(=O)O)c3cc(S(=O)(=O)O)cc(S(=O)(=O)O)c23)c1)Nc1cccc(C(=O)Nc2ccc(S(=O)(=O)O)c3cc(S(=O)(=O)O)cc(S(=O)(=O)O)c23)c1 [NCGC00025069-04] | – | – | – | – | -37 | -1.4 | 0.316
43 | CO/N=C(/C(=O)N[C@@H]1C(=O)N2C(C(=O)[O-])=C(C[n+]3ccn4ncccc43)CS[C@H]12)c1nsc(N)n1 [NCGC00181750-01] | -60 | -2.4 | 56.2 | – | – | – | –
44 | O=C(Nc1ccccc1)c1ccccc1NC(=O)C1CCCCC1 [NCGC00189487-01] | -27 | -2.4 | 56.2 | – | – | – | –
45 | COc1cccc(CNc2ccc(S(=O)(=O)Nc3ccc(C4CCNCC4)cc3)cc2)c1O.O=C(O)C(F)(F)F [NCGC00343917-01] | -46 | – | 50.1 | -2.4 | – | – | –
46 | O=c1onc2cnc3ccccc3n12 [NCGC00015770-05] | – | – | – | – | -21 | -2.4 | 56.2
47 | COc1cccc2c1C(=O)c1c(O)c3c(c(O)c1C2=O)C[C@@](O)(C(C)=O)C[C@@H]3O[C@H]1C[C@H](N)[C@H](O)[C@H](C)O1 [NCGC00024246-15] | -61 | – | 15.2 | – | – | – | –
48 | O=C1c2ccccc2C(=O)c2c(NCCc3ccc(O)cc3)ccc(NCCc3ccc(O)cc3)c21 [NCGC00186017-01] | -32 | – | 31.6 | -2.2 | – | – | –
49 | Cc1c2c(=O)n(-c3ccccc3)[nH]c2cc(=O)n1Cc1ccco1.O=C(O)C(F)(F)F [NCGC00248469-01] | -43 | -2.4 | 56.2 | – | – | – | –
